Measurements from patent US9394282B2, “Pyrazole carboxamides as Janus kinase inhibitors” (Merck Sharp & Dohme Corp., priority 2011, dated 2016).
pIC50: −log10 of the molar value.

These compounds were tested against JAK2 (Homo sapiens (Human), UniProt O60674) (assay: Jak biochemical HTRF assay, JAK2). Conditions: recombinant purified GST-tagged catalytic domain; HTRF format; [ATP] 8.5 μM.
Sequence of JAK2 (O60674 849-1124): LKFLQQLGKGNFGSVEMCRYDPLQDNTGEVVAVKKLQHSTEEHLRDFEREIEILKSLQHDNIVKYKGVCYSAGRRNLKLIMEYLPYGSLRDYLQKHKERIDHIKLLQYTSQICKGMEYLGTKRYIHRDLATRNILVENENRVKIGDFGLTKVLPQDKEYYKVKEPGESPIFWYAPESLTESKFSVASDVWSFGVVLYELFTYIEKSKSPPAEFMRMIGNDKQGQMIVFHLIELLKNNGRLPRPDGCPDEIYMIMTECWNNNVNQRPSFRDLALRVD
Description: (§1) Jak Biochemical HTRF Assay Protocol
(§2) Subsequent reagent additions employed an Agilent Bravo.
Compound `CC(C)(C)OC(=O)N1CCC(n2cc(C(N)=O)c(Nc3ccc(F)cc3)n2)[C@H](C#N)C1` (mixture of isomers) [Example 2-2, (3R,4S and 3S,4R)-tert-butyl 4-(4-carbamoyl-3-((4-fluorophenyl)amino)-1H-pyrazol-1-yl)-3-cyanopiperidine-1-carboxylate] has a pIC50 of 6.08.
For `CC(C)(C)OC(=O)N1CCC(n2cc(C(N)=O)c(Nc3ccc(F)cc3)n2)[C@@H](C#N)C1` (mixture of isomers) [Example 2-3, (3S,4S and 3R,4R)-tert-butyl 4-(4-carbamoyl-3-((4-fluorophenyl)amino)-1H-pyrazol-1-yl)-3-cyanopiperidine-1-carboxylate], the pIC50 was 6.44.
`CC(C)COC(=O)N1CC[C@@H](n2cc(C(N)=O)c(Nc3ccc(F)cc3)n2)[C@H](C#N)C1` (racemic) [Example 5-10, 2-methylpropyl (3R,4R and 3S,4S)-4-{4-carbamoyl-3-[(4-fluorophenyl)amino]-1H-pyrazol-1-yl}-3-cyanopiperidine-1-carboxylate] was tested, and the pIC50 was 6.12.
`N#C[C@@H]1CN(C(=O)OCc2ccccc2)CC[C@H]1n1cc(C(N)=O)c(Nc2ccc(F)cc2)n1` (racemic) [Example 5-12, benzyl (3R,4R and 3S,4S)-4-{4-carbamoyl-3-[(4-fluorophenyl)amino]-1H-pyrazol-1-yl}-3-cyanopiperidine-1-carboxylate] was tested, and the pIC50 was 6.43.
Compound `CN1CCN(CCOC(=O)N2CC[C@@H](n3cc(C(N)=O)c(Nc4ccc(F)cc4)n3)[C@H](C#N)C2)CC1` (racemic) [Example 5-24, 2-(4-methylpiperazin-1-yl)ethyl (3R,4R and 3S,4S)-4-{4-carbamoyl-3-[(4-fluorophenyl)amino]-1H-pyrazol-1-yl}-3-cyanopiperidine-1-carboxylate] has a pIC50 of 5.97.
`CC1(COC(=O)N2CC[C@@H](n3cc(C(N)=O)c(Nc4ccc(F)cc4)n3)[C@H](C#N)C2)COC1` (racemic) [Example 5-33, (3-methyloxetan-3-yl)methyl (3R,4R and 3S,4S)-4-{4-carbamoyl-3-[(4-fluorophenyl)amino]-1H-pyrazol-1-yl}-3-cyanopiperidine-1-carboxylate] showed a pIC50 of 6.38.
Compound `C#CCCOC(=O)N1CC[C@@H](n2cc(C(N)=O)c(Nc3ccc(F)cc3)n2)[C@H](C#N)C1` (racemic) [Example 5-34, but-3-yn-1-yl (3R,4R and 3S,4S)-4-{4-carbamoyl-3-[(4-fluorophenyl)amino]-1H-pyrazol-1-yl}-3-cyanopiperidine-1-carboxylate] has a pIC50 of 6.81.
`C#CCCOC(=O)N1CC[C@H](n2cc(C(N)=O)c(Nc3ccc(F)cc3)n2)[C@H](C#N)C1` (racemic) [Example 5-40, but-3-yn-1-yl (3R,4S and 3S,4R)-4-{4-carbamoyl-3-[(4-fluorophenyl)amino]-1H-pyrazol-1-yl}-3-cyanopiperidine-1-carboxylate] gave a pIC50 of 5.86.
With `CC1(COC(=O)N2CC[C@H](n3cc(C(N)=O)c(Nc4ccc(F)cc4)n3)[C@H](C#N)C2)COC1` (racemic) [Example 5-45, (3-methyloxetan-3-yl)methyl (3R,4S and 3S,4R)-4-{4-carbamoyl-3-[(4-fluorophenyl)amino]-1H-pyrazol-1-yl}-3-cyanopiperidine-1-carboxylate] the pIC50 was < 5.83.
For `N#C[C@@H]1CN(C(=O)OCc2ccccc2)CC[C@@H]1n1cc(C(N)=O)c(Nc2ccc(F)cc2)n1` (racemic) [Example 5-52, benzyl (3R,4S and 3S,4R)-4-{4-carbamoyl-3-[(4-fluorophenyl)amino]-1H-pyrazol-1-yl}-3-cyanopiperidine-1-carboxylate], the pIC50 was < 5.83.
In the case of `CC(C)COC(=O)N1CC[C@H](n2cc(C(N)=O)c(Nc3ccc(F)cc3)n2)[C@H](C#N)C1` (racemic) [Example 5-56, 2-methylpropyl (3R,4S and 3S,4R)-4-{4-carbamoyl-3-[(4-fluorophenyl)amino]-1H-pyrazol-1-yl}-3-cyanopiperidine-1-carboxylate], the pIC50 was < 5.83.
With `N#C[C@@H]1CN(C(=O)OC2CCCCC2)CC[C@@H]1n1cc(C(N)=O)c(Nc2ccc(F)cc2)n1` (racemic) [Example 5-61, cyclohexyl (3R,4S and 3S,4R)-4-{4-carbamoyl-3-[(4-fluorophenyl)amino]-1H-pyrazol-1-yl}-3-cyanopiperidine-1-carboxylate] the pIC50 was < 5.83.
`CC(C)(C#N)COC(=O)N1CC[C@@H](C#N)C(n2cc(C(N)=O)c(Nc3ccc(F)cc3)n2)C1` (mixture of isomers) [Example 5-69, 2-Cyano-2-methylpropyl (3S,4R and 3R,4S)-3-{4-carbamoyl-3-[(4-fluorophenyl)amino]-1H-pyrazol-1-yl}-4-cyanopiperidine-1-carboxylate] was tested, and the pIC50 was 7.39.
With `N#C[C@@H]1CCN(C(=O)OCCF)CC1n1cc(C(N)=O)c(Nc2ccc(F)cc2)n1` (mixture of isomers) [Example 5-79, 2-fluoroethyl (3S,4R and 3R,4S)-3-{4-carbamoyl-3-[(4-fluorophenyl)amino]-1H-pyrazol-1-yl}-4-cyanopiperidine-1-carboxylate] the pIC50 was 7.25.

Same assay, conditions: recombinant purified GST-tagged catalytic domain; HTRF format; [ATP] […]
Work on `N#C[C@@H]1CN(C(=O)OC2CCCCC2)CC[C@H]1n1cc(C(N)=O)c(Nc2ccc(F)cc2)n1` (mixture of isomers) [Example 5-17, cyclohexyl (3R,4R and 3S,4S)-4-{4-carbamoyl-3-[(4-fluorophenyl)amino]-1H-pyrazol-1-yl}-3-cyanopiperidine-1-carboxylate] yielded a pIC50 of 5.91.
Work on `Cn1nccc1CN1CC[C@@H](n2cc(C(N)=O)c(Nc3ccc(F)cc3)n2)[C@H](C#N)C1` (mixture of isomers) [Example 6-32, 1-{(3R,4R and 3S,4S)-3-cyano-1-[(1-methyl-1H-pyrazol-5-yl)methyl]piperidin 4-yl}-3-[(4-fluorophenyl)amino]-1H-pyrazole-4-carboxamide] yielded a pIC50 of 7.46.

What follows are compounds tested against JAK1 (Homo sapiens (Human), UniProt P23458) (assay: Jak biochemical HTRF assay, JAK1). Conditions: recombinant purified GST-tagged catalytic domain; HTRF format; [ATP] 31.8 μM.
Sequence of JAK1 (P23458 875-1153): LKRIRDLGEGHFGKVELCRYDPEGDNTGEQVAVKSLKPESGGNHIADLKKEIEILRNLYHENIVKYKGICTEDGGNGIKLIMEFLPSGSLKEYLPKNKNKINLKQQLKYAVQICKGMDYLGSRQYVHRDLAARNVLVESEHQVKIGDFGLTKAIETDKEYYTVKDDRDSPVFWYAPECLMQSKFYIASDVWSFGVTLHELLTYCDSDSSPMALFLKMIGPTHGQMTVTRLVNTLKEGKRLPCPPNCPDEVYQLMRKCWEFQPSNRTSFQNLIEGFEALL
Description: as §1, §2
Compound `N#C[C@H]1CS(=O)(=O)CC1n1cc(C(N)=O)c(Nc2ccnc(F)c2)n1` (mixture of isomers) [Example 8-8, 1-((3S,4S and 3R,4R)-4-cyano-1,1-dioxidotetrahydrothiophen-3-yl)-3-((2-fluoropyridin-4-yl)amino)-1H-pyrazole-4-carboxamide] has a pIC50 of 8.30.
`N#C[C@H]1CCOC[C@@H]1n1cc(C(N)=O)c(Nc2ccc(Cl)c(Cl)c2)n1` (single isomer, unassigned) [Example 9-10, 1-[(3R,4S or 3S,4R)-4-cyanotetrahydro-2H-pyran-3-yl]-3-[(3,4-dichlorophenyl)amino]-1H-pyrazole-4-carboxamide] was tested, and the pIC50 was 7.59.
`N#C[C@@H]1CCOC[C@H]1n1cc(C(N)=O)c(Nc2ccc(Cl)c(Cl)c2)n1` (single isomer, unassigned) [Example 9-11, 1-[(3S,4R or 3R,4S)-4-cyanotetrahydro-2H-pyran-3-yl]-3-[(3,4-dichlorophenyl)amino]-1H-pyrazole-4-carboxamide] gave a pIC50 of 9.40.
Work on `N#C[C@H]1CCOC[C@@H]1n1cc(C(N)=O)c(Nc2ccc(Cl)c(F)c2)n1` (single isomer, unassigned) [Example 9-12, 3-[(4-chloro-3-fluorophenyl)amino]-1-[(3R,4S or 3S,4R)-4-cyanotetrahydro-2H-pyran-3-yl]-1H-pyrazole-4-carboxamide] yielded a pIC50 of 7.80.
`N#C[C@@H]1CCOC[C@H]1n1cc(C(N)=O)c(Nc2ccc(Cl)c(F)c2)n1` (single isomer, unassigned) [Example 9-13, 3-[(4-chloro-3-fluorophenyl)amino]-1-[(3S,4R or 3R,4S)-4-cyanotetrahydro-2H-pyran-3-yl]-1H-pyrazole-4-carboxamide] gave a pIC50 of 9.70.
`N#C[C@H]1CCOC[C@@H]1n1cc(C(N)=O)c(Nc2ccc(C(F)(F)F)nc2)n1` (single isomer, unassigned) [Example 9-14, 1-[(3R,4S or 3S,4R)-4-cyanotetrahydro-2H-pyran-3-yl]-3-{[6-(trifluoromethyl)pyridin-3-yl]amino}-1H-pyrazole-4-carboxamide] was tested, and the pIC50 was 9.15.
Work on `N#C[C@@H]1CCOC[C@H]1n1cc(C(N)=O)c(Nc2ccc(C(F)(F)F)nc2)n1` (single isomer, unassigned) [Example 9-15, 1-[(3S,4R or 3R,4S)-4-cyanotetrahydro-2H-pyran-3-yl]-3-{[6-(trifluoromethyl)pyridin-3-yl]amino}-1H-pyrazole-4-carboxamide] yielded a pIC50 of 7.34.
For `N#C[C@@H]1CCOC[C@H]1n1cc(C(N)=O)c(Nc2cnc3cc(Cl)ccc3c2)n1` (single isomer, unassigned) [Example 9-21, 3-[(7-chloroquinolin-3-yl)amino]-1-[(3S,4R or 3R,4S)-4-cyanotetrahydro-2H-pyran-3-yl]-1H-pyrazole-4-carboxamide], the pIC50 was 7.68.
`N#C[C@H]1CCOC[C@@H]1n1cc(C(N)=O)c(Nc2cnc3cc(Cl)ccc3c2)n1` (single isomer, unassigned) [Example 9-22, 3-[(7-chloroquinolin-3-yl)amino]-1-[(3R,4S or 3S,4R)-4-cyanotetrahydro-2H-pyran-3-yl]-1H-pyrazole-4-carboxamide] was tested, and the pIC50 was 9.30.
`COC(C)(C)c1ccc(Nc2nn([C@H]3COCC[C@@H]3C#N)cc2C(N)=O)cc1` (single isomer, unassigned) [Example 9-23, 1-[(3R,4S or 3S,4R)-4-cyanotetrahydro-2H-pyran-3-yl]-3-{[4-(1-methoxy-1-methylethyl)phenyl]amino}-1H-pyrazole-4-carboxamide] was tested, and the pIC50 was 8.52.
`COC(C)(C)c1ccc(Nc2nn([C@@H]3COCC[C@H]3C#N)cc2C(N)=O)cc1` (single isomer, unassigned) [Example 9-25, 1-[(3S,4R or 3R,4R)-4-cyanotetrahydro-2H-pyran-3-yl]-3-{[4-(1-methoxy-1-methylethyl)phenyl]amino}-1H-pyrazole-4-carboxamide] gave a pIC50 of 10.00.
Work on `N#C[C@H]1CCOC[C@@H]1n1cc(C(N)=O)c(Nc2ccccc2)n1` (single isomer, unassigned) [Example 9-37, 1-[(3S,4R or 3R,4S)-4-cyanotetrahydro-2H-pyran-3-yl]-3-(phenylamino)-1H-pyrazole-4-carboxamide] yielded a pIC50 of 8.00.
With `N#C[C@@H]1CCOC[C@H]1n1cc(C(N)=O)c(Nc2ccccc2)n1` (single isomer, unassigned) [Example 9-38, 1-[(3R,4S or 3S,4R)-4-cyanotetrahydro-2H-pyran-3-yl]-3-(phenylamino)-1H-pyrazole-4-carboxamide] the pIC50 was 9.52.
